Results on four molecules are retold here after patent US5543496A, “Cyclic bradykinin antagonist peptides” (Scios Nova Inc., priority 1994, dated 1996).

In one data set the target is T1, bradykinin receptor (Cavia porcellus, UniProt O70526).
T1 construct: from tissue; host or cells: guinea pig terminal ileum, washed membrane homogenate
T1 sequence (O70526 1-372): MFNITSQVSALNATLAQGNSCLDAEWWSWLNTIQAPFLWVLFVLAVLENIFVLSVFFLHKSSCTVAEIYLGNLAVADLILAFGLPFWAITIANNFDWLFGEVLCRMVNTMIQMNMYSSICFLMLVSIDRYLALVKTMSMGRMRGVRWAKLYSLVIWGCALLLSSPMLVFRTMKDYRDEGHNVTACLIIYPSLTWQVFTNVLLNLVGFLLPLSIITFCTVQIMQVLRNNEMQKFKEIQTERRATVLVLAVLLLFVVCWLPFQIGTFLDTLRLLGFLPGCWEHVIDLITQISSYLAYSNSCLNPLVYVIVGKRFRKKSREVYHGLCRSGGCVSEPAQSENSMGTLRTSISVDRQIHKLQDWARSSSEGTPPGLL
Nature of the data set: 3H-Bradykinin binding assay, guinea pig ileum membranes. The following applies: displacement of 3H-bradykinin, terminal ileum homogenate of male Hartley guinea pigs, 90 min ambient temperature. How it is done:
Binding of ^3 H-Bradykinin was performed using the method of D. C. Manning, R. Vavrek, J. M. Stewart, and S. H. Snyder, J. Pharmacol. Exp. Ther., (1986), 237, 504. The tissues used in the binding assay were terminal ileum from male Hartley guinea pigs (150-350 g). After dissection, tissues were placed in 20 vol of ice-cold buffer A (25 mM TES containing 0.2 g/L of 1,10-phenanthroline adjusted of pH 6.8 with ammonium hydroxide) and homogenized using a Ploytron Tissumizer at setting 6 for 15 sec. The homogenate was centrifuged at 50,000×g for 10 min, the supernatant discarded, and the pellet resuspended in ice-cold buffer A by homogenization with the Polytron. Each tissue was homogenized and centrifuged three times. The final pellet was resuspended in buffer A containing bovine serum albumin (1 g/L) and Bacitracin (0.14 g/L) to a final volume of 170 mL/g of the original tissue weight. […] Filters were dissolved in Ready-Safe Fluor (Beckman) for at least 90 min before quantitation by liquid scintillation spectrometry. Kd values were determined using saturation binding and analysis by EBDA (G. A. MacPherson, J. Pharmacol. Methods, (1985), 213), followed by LIGAND (P. J. Munson, D. Rodbard, Anal. Biochem., (1980), 220). Ki values were determined using competitive analysis followed by EBDA and LIGAND. […]
In general terms: Loss of bound radioactivity is the signal in a displacement assay; it reports binding, not function.

For data set [1] the following is noted: cited from earlier work.
For data set [2] the following is noted: anesthetized rat, intra-aortic vs intravenous administration; cited from earlier work.
The target in data set [3] is T2, bradykinin receptors on intestinal (ileal longitudinal) smooth muscle (Cavia porcellus, UniProt O70526).
T2 construct: The longitudinal muscle was separated from the underlying circular muscle; from tissue; host or cells: guinea pig ileal longitudinal smooth muscle strips in tissue bath
T2 sequence (O70526 1-372): T1 sequence (O70526 1-372)
Nature of the data set: Bradykinin antagonist activity on guinea pig ileal longitudinal smooth muscle (Schild analysis). It counts as cell-based. The following applies: antagonism of bradykinin-induced contraction, 5 min exposure, read-out: pA2 (converted). As for the experimental part:
Guinea pig intestine was removed and placed in a Petri dish containing Tyrodes solution and cut into 3-4 cm segments. The longitudinal muscle was separated from the underlying circular muscle using a cotton applicator (Paton and Zar, J. Physiol., (1968), 194:13. Muscle strips were connected to isometric force-displacement transducers (Grass or Gould) coupled to a physiograph and placed in tissue baths containing Tyrode's solution at 37° C. Each preparation was suspended under a resting tension of 2 g.
After equilibration of the tissues, appropriate volumes of bradykinin solutions were cumulatively added to the 10 mL tissue baths to increase the concentration of bradykinin in the bath step-by-step without washing out after each single dose. Higher concentrations were added only after the preceding contraction had reached a steady value. […] Antagonism of badykinin responses in the presence of antagonist were determined by repeating the cumulative addition procedure for bradykinin after the tissue has been exposed to the antagonist for 5 minutes. Three or four different concentrations of antagonist are studied sequentially in the same preparations. Responses were expressed as a percentage of the maximum contraction elicited by bradykinin in the absence of antagonist. pA2 values were calculated by Schild analysis.

Positions of bridges follow the written chain, without caps; N, C: chain ends. Non-standard residues stand in square brackets, D forms with d. Residues, ends and D or L forms follow the SMILES beside them. Oic = O=C(O)[C@@H]1C[C@@H]2CCCC[C@@H]2N1; dTic = O=C(O)[C@H]1Cc2ccccc2CN1

As usually defined, the Ki is a dissociation constant, usually derived from enzyme kinetics or from competition with a known ligand. A higher Ki goes with weaker binding. `N=C(N)NCCC[C@@H](N)C(=O)N[C@@H](CCCNC(=N)N)C(=O)N[C@H]1CSSC[C@@H](C(=O)N[C@@H](CO)C(=O)N2Cc3ccccc3C[C@@H]2C(=O)N2[C@H](C(=O)N[C@@H](CCCNC(=N)N)C(=O)O)C[C@@H]3CCCC[C@@H]32)NC(=O)CNC(=O)[C@@H]2CCCN2C1=O` [drawing 23] (H-[dR]RCPGCS[dTic][Oic]R-OH; disulfide 3-6) displayed an inhibition constant Ki at bradykinin receptor of 1.5 ± 0.1 nM.

`NC(N)=NCCC[C@@H](N)C(=O)N[C@@H](CCCN=C(N)N)C(=O)N[C@H]1CSSC[C@@H](C(=O)N2Cc3ccccc3C[C@@H]2C(=O)N2[C@H](C(=O)N[C@@H](CCCN=C(N)N)C(=O)O)C[C@@H]3CCCC[C@@H]32)NC(=O)[C@H](Cc2ccccc2)NC(=O)CNC(=O)[C@@H]2CCCN2C1=O` (H-[dR]RCPGFC[dTic][Oic]R-OH; disulfide 3-7) displayed an inhibitory constant (Ki) on bradykinin receptor of 14.8 ± 0.34 nM.

For the molecule “Bradykinin (RPPGFSPFR; Bradykinin; UniProt P01042 381-389, looked up) [nonapeptide hormone, native agonist]”, the “half life in the systemic circulation” value in data set [1] is reported as “less than 30 seconds”. In addition, the “destruction on a single passage through the pulmonary circulation” value in data set [2] is recorded as 98-99%.

For the molecule `N=C(N)NCCC[C@@H](N)C(=O)N[C@@H](CCCNC(=N)N)C(=O)N[C@H]1CSSC[C@@H](C(=O)N[C@@H](CO)C(=O)N2Cc3ccccc3C[C@@H]2C(=O)N2[C@H](C(=O)N[C@@H](CCCNC(=N)N)C(=O)O)C[C@@H]3CCCC[C@@H]32)NC(=O)CNC(=O)[C@@H]2CCCN2C1=O` [drawing 26] (H-[dR]RCPGCS[dTic][Oic]R-OH; disulfide 3-6), in data set [3], the Kb is 251 nM.
